Experimental data from ChEMBL document CHEMBL1201862, “PubChem BioAssay data set” (2004).
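Cells were grown in 96-well plates and exposed to each compound for 48 hours at five concentrations; endpoints were interpolated linearly between bracketing concentrations, or set to the highest concentration if not reached. GI50 is the concentration that inhibits growth by half.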 The source made the active and inactive calls. No stated cut-off is given here; in the data, active = GI50 up to about 1.1 µM and inactive = higher.

What was measured:
Assay in all cases: NCI anticancer screen, dose series, 48 h
A549 = test system: A549
CAKI-1 = test system: CAKI-1
HCC 2998 = test system: HCC 2998
HCT-15 = test system: HCT-15
HL-60 = test system: HL-60
Hs-578T = test system: Hs-578T
K562 = test system: K562
LOX IMVI = test system: LOX IMVI
NCI-H23 = test system: NCI-H23
NCI-H522 = test system: NCI-H522
NCI/ADR-RES = test system: NCI/ADR-RES
OVCAR-3 = test system: OVCAR-3
PC-3 = test system: PC-3
RPMI-8226 = test system: RPMI-8226
RXF 393 = test system: RXF 393
SF-295 = test system: SF-295
SF-539 = test system: SF-539
SK-MEL-5 = test system: SK-MEL-5
SW-620 = test system: SW-620
UACC-257 = test system: UACC-257

Compound	GI50 (A549)	GI50 (CAKI-1)	GI50 (HCC 2998)	GI50 (HCT-15)	GI50 (HL-60)	GI50 (Hs-578T)	GI50 (K562)	GI50 (LOX IMVI)	GI50 (NCI-H23)	GI50 (NCI-H522)	GI50 (NCI/ADR-RES)	GI50 (OVCAR-3)	GI50 (PC-3)	GI50 (RPMI-8226)	GI50 (RXF 393)	GI50 (SF-295)	GI50 (SF-539)	GI50 (SK-MEL-5)	GI50 (SW-620)	GI50 (UACC-257)
CCOC(=O)c1nc2c3c(ncn2n1)Oc1c(c(-c2ccccc2)nn1-c1ccccc1)C3c1ccc(Cl)cc1 (stereo not given)	> 100 µM (inactive)	> 100 µM (inactive)	> 100 µM (inactive)	> 100 µM	> 100 µM (inactive)	> 100 µM (inactive)	> 100 µM (inactive)	> 100 µM (inactive)	> 100 µM (inactive)	> 100 µM (inactive)	> 100 µM (inactive)	> 100 µM (inactive)	> 100 µM (inactive)	> 100 µM (inactive)	> 100 µM (inactive)	> 100 µM (inactive)	> 100 µM (inactive)	> 100 µM (inactive)	> 100 µM (inactive)	> 100 µM (inactive)
CC[C@@]1(OP(=O)(O)O)C(=O)OCc2c1cc1n(c2=O)Cc2cc3ccccc3nc2-1	0.143 µM (active)	0.0467 µM (active)	0.771 µM (active)	0.748 µM	0.0306 µM (active)	> 10 µM (inactive)	0.438 µM (active)	0.0391 µM (active)	0.0608 µM (active)	0.286 µM (active)	0.0718 µM (active)	2.73 µM (inactive)	0.32 µM (active)	0.0718 µM (active)	0.454 µM (active)	0.0301 µM (active)	0.109 µM (active)	0.153 µM (active)	0.403 µM (active)	0.287 µM (active)
O=C(O)c1ccc(C(=O)c2ccccc2)c(C(=O)O)c1	> 100 µM (inactive)	> 100 µM (inactive)	> 100 µM (inactive)	> 100 µM	> 100 µM (inactive)	> 100 µM (inactive)	> 100 µM (inactive)	> 100 µM (inactive)	> 100 µM (inactive)	> 100 µM (inactive)	> 100 µM (inactive)	> 100 µM (inactive)	> 100 µM (inactive)	> 100 µM (inactive)	> 100 µM (inactive)	> 100 µM (inactive)	> 100 µM (inactive)	> 100 µM (inactive)	> 100 µM (inactive)	> 100 µM (inactive)
CC(C)OC(=O)[C@H]1ON2O[C@H](O[C@@H]3CCCC[C@H]3c3ccccc3)C([Si](C)(C)c3ccccc3)[C@H]3OC(=O)[C@@H]1C32 (stereo not given in full)	> 100 µM (inactive)	> 100 µM (inactive)	> 100 µM (inactive)	> 100 µM	> 100 µM (inactive)	> 100 µM (inactive)	34 µM (inactive)	> 100 µM (inactive)	> 100 µM (inactive)	81.3 µM (inactive)	> 100 µM (inactive)	> 100 µM (inactive)	> 100 µM (inactive)	> 100 µM (inactive)	> 100 µM (inactive)	> 100 µM (inactive)	> 100 µM (inactive)	> 100 µM (inactive)	> 100 µM (inactive)	> 100 µM (inactive)
N#CC(C#N)=C1CCCCc2ccc([N+](=O)[O-])cc21	> 100 µM (inactive)	95.7 µM (inactive)	> 100 µM (inactive)	63.7 µM	29 µM (inactive)	> 100 µM (inactive)	39.4 µM (inactive)	76.2 µM (inactive)	> 100 µM (inactive)	19.4 µM (inactive)	> 100 µM (inactive)	15.7 µM (inactive)	55.3 µM (inactive)	31.2 µM (inactive)	40.6 µM (inactive)	> 100 µM (inactive)	> 100 µM (inactive)	> 100 µM (inactive)	41.9 µM (inactive)	> 100 µM (inactive)
C=C(C)C(CC=C(C)C)CC12CC(CC=C(C)C)C(C)(C)C(CC=C(C)C)(C(=O)C(Cc3ccc(O)c(O)c3)=C1O)C2=O (stereo not given)	> 100 µM (inactive)	> 100 µM (inactive)	> 100 µM (inactive)	> 100 µM	> 100 µM (inactive)	> 100 µM (inactive)	99.3 µM (inactive)	> 100 µM (inactive)	> 100 µM (inactive)	> 100 µM (inactive)	> 100 µM (inactive)	> 100 µM (inactive)	> 100 µM (inactive)	> 100 µM (inactive)	> 100 µM (inactive)	> 100 µM (inactive)	> 100 µM (inactive)	> 100 µM (inactive)	> 100 µM (inactive)	> 100 µM (inactive)
CCCCCc1cc2cc3c(c(O)c2c(=O)[nH]1)C1(CCC3)C(=O)c2c(O)ccc(O)c2C1=O	> 100 µM (inactive)	> 100 µM (inactive)	> 100 µM (inactive)	> 100 µM	> 100 µM (inactive)	> 100 µM (inactive)	> 100 µM (inactive)	> 100 µM (inactive)	> 100 µM (inactive)	> 100 µM (inactive)	99.5 µM (inactive)	> 100 µM (inactive)	> 100 µM (inactive)	> 100 µM (inactive)	43 µM (inactive)	> 100 µM (inactive)	> 100 µM (inactive)	> 100 µM (inactive)	56 µM (inactive)	> 100 µM (inactive)
CCCCC(/C=C\COC1CCCCO1)=C/C(=O)OCC (stereo not given)	56.6 µM (inactive)	> 100 µM (inactive)	> 100 µM (inactive)	> 100 µM	29.2 µM (inactive)	83.9 µM (inactive)	45.2 µM (inactive)	41.4 µM (inactive)	> 100 µM (inactive)	30.5 µM (inactive)	> 100 µM (inactive)	52.7 µM (inactive)	44.9 µM (inactive)	25.9 µM (inactive)	60.7 µM (inactive)	44.4 µM (inactive)	14.3 µM (inactive)	92.5 µM (inactive)	70.6 µM (inactive)	> 100 µM (inactive)
CCC1(OC(=O)CN2CCN(CCO)CC2)C(=O)OCc2c1cc1n(c2=O)Cc2cc3ccccc3nc2-1 (stereo not given)	0.307 µM (active)	0.047 µM (active)	0.45 µM (active)	1.49 µM	0.286 µM (active)	14 µM (inactive)	0.583 µM (active)	0.18 µM (active)	0.167 µM (active)	0.306 µM (active)	0.11 µM (active)	1.96 µM (inactive)	0.405 µM (active)	0.962 µM (active)	0.593 µM (active)	0.141 µM (active)	0.188 µM (active)	0.281 µM (active)	0.0991 µM (active)	0.771 µM (active)
